Key:
[1] = target: T1, ALDH1a3 (Homo sapiens, UniProt P47895); assay: Aldh1a3 enzyme inhibition assay, recombinant hALDH1a3; assay type: biochemical; set-up: made in house; host or cells: E. coli BL21-DE3, pET-Aldh1a3; details: resorufin fluorescence, 20° C.
T1 sequence (P47895 1-512): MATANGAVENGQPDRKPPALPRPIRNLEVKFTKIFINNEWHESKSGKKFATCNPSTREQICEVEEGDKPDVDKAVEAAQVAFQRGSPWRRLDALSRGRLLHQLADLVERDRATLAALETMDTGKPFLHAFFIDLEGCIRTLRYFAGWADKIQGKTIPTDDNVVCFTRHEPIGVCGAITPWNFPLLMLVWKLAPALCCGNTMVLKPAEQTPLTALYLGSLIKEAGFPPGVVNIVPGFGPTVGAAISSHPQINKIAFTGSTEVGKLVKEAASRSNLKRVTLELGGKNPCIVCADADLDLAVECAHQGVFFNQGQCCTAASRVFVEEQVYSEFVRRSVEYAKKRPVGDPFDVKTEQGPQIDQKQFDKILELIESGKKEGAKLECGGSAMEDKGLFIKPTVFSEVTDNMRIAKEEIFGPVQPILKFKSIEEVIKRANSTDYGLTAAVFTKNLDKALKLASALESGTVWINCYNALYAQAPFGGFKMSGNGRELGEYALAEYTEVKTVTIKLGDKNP
Description: (§1) Recombinant enzyme and inhibitor added immediately before assay. Reaction rate measured by resorufin fluorescence.

[2] = target: T2, mALDH1a3 (Mus musculus, UniProt Q9JHW9); assay: Aldh1a3 enzyme inhibition assay, recombinant mALDH1a3; assay type: biochemical; details: resorufin fluorescence, 20° C.
T2 construct: made in house; host or cells: E. coli BL21-DE3, pET-Aldh1a3
T2 sequence (Q9JHW9 1-512): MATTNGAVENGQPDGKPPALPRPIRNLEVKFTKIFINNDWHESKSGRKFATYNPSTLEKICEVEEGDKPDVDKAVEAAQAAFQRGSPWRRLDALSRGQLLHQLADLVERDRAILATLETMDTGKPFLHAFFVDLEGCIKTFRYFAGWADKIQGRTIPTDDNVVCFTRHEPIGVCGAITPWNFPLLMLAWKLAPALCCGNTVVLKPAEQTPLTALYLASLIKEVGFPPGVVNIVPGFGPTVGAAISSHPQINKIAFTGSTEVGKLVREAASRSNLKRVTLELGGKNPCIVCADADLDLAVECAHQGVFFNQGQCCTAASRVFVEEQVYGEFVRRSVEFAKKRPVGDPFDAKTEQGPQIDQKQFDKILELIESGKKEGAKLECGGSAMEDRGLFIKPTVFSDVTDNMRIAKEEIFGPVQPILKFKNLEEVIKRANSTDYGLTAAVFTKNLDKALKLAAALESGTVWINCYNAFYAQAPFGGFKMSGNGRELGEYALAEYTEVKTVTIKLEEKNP
Description: as §1

SMILES | IC50 [1] [µM] | IC50 [2] [µM]
CCCc1cnccc1C(=O)Nc1cc2c(cc1F)NC(=O)CC2 [Compound 5] | < 0.1 | 0.25 to 1
CC(C)c1cnccc1C(=O)Nc1cc2c(cc1F)NC(=O)CC2 [Compound 6] | 1 to 5 | 1 to 5
CCc1cnc(C)cc1C(=O)Nc1cc2c(cc1F)NC(=O)CC2 [Compound 8] | < 0.1 | 0.1 to 0.25
CCc1cnccc1C(=O)Nc1ccc2c(c1)CC(C)(C)C(=O)N2 [Compound 18, N-(3,3-dimethyl-2-oxo-1,4-dihydroquinolin-6-yl)-3-ethyl-pyridine-4-carboxamide] | 0.1 to 0.25 | 1 to 5
CCc1cnccc1C(=O)Nc1ccc2c(c1)C(C)(C)CC(=O)N2 [Compound 19, N-(4,4-dimethyl-2-oxo-1,3-dihydroquinolin-6-yl)-3-ethyl-pyridine-4-carboxamide] | 0.25 to 1 | 1 to 5
CCc1cnccc1C(=O)Nc1ccc2c(c1)CN(C)C(=O)N2 [Compound 20, 3-ethyl-N-(3-methyl-2-oxo-1,4-dihydroquinazolin-6-yl)pyridine-4-carboxamide] | 1 to 5 | > 5
Cc1cnccc1C(=O)Nc1ccc2c(c1)CCC(=O)N2 [Compound 21] | > 5 | > 5
O=C1CCc2cc(Nc3nccc4ccccc34)ccc2N1 [Compound 22, 6-(1-isoquinolylamino)-3,4-dihydro-1H-quinolin-2-one] | > 5 | > 5
CCc1cnccc1C(=O)Nc1ccc2c(c1)CCC(=O)N2C [Compound 23, 3-ethyl-N-(1-methyl-2-oxo-3,4-dihydroquinolin-6-yl)pyridine-4-carboxamide] | > 5 | 1 to 5
Cc1cc(C(=O)Nc2ccc3c(c2)CCC(=O)N3)ccn1 [Compound 24] | > 5 | > 5
CCc1cnccc1NC(=O)c1ccc2c(c1)CCC(=O)N2 [Compound 26, N-(3-ethyl-4-pyridyl)-2-oxo-3,4-dihydro-1H-quinoline-6-carboxamide] | > 5 | > 5
CCc1cnccc1C(=O)N(C)c1ccc2c(c1)CCC(=O)N2 [Compound 27, 3-ethyl-N-methyl-N-(2-oxo-3,4-dihydro-1H-quinolin-6-yl)pyridine-4-carboxamide] | > 5 | > 5
CCc1cnccc1C(=O)NCc1ccc2c(c1)CCC(=O)N2 [Compound 28, 3-ethyl-N-[(2-oxo-3,4-dihydro-1H-quinolin-6-yl)methyl]pyridine-4-carboxamide] | > 5 | > 5
CCc1cc(C(=O)Nc2ccc3c(c2)CCC(=O)N3)ccn1 [Compound 29] | > 5 | > 5
Cc1cnccc1/C=C/c1ccc2c(c1)CCC(=O)N2 [Compound 30, 6-[(E)-2-(3-methyl-4-pyridyl)vinyl]-3,4-dihydro-1H-quinolin-2-one] | > 5 | 1 to 5
CCc1cnccc1CC(=O)Nc1ccc2c(c1)CCC(=O)N2 [Compound 31, 2-(3-ethyl-4-pyridyl)-N-(2-oxo-3,4-dihydro-1H-quinolin-6-yl) acetamide] | > 5 | > 5
CCc1cnccc1C(=O)Nc1ccc2c(c1)NC(=O)CC2 [Compound 32] | > 5 | > 5
CCc1cnccc1/C=C/c1ccc2c(c1)CCC(=O)N2 [Compound 33, 6-[(E)-2-(3-ethyl-4-pyridyl)vinyl]-3,4-dihydro-1H-quinolin-2-one] | 0.1 to 0.25 | 0.1 to 0.25
CC1(C)CC(=O)Nc2ccc(Nc3nccc4ccccc34)cc21 [Compound 34, 6-(1-isoquinolylamino)-4,4-dimethyl-1,3-dihydroquinolin-2-one] | > 5 | > 5
O=C1CCc2cc(Nc3ccc4ccccc4n3)ccc2N1 [Compound 35, 6-(2-quinolylamino)-3,4-dihydro-1H-quinolin-2-one] | 0.25 to 1 | < 0.1

SMILES | IC50 [1] [µM] | IC50 [2] [µM]
Cc1cc(C(=O)Nc2cc3c(cc2F)NC(=O)C(C)(C)C3)c(CC(C)C)cn1 [Compound 37, N-(7-fluoro-3,3-dimethyl-2-oxo-1,4-dihydroquinolin-6-yl)-5-isobutyl-2-methyl-pyridine-4-carboxamide] | 1 to 5 | > 5
CCc1cnccc1C(=O)Nc1cc2c(cc1F)NC(=O)C(C)(C)C2 [Compound 38] | 0.25 to 1 | 1 to 5
CCc1cnccc1C(=O)Nc1cc2ccc(=O)[nH]c2cc1F [Compound 39, 3-ethyl-N-(7-fluoro-2-oxo-1H-quinolin-6-yl) pyridine-4-carboxamide] | 0.25 to 1 | 1 to 5
CCc1cnccc1C(=O)Nc1cc2c(cc1F)NC(=O)CC2(C)C [Compound 40] | 1 to 5 | 0.25 to 1
COc1cnccc1C(=O)Nc1cc2c(cc1F)NC(=O)C(C)(C)C2 [Compound 41, N-(7-fluoro-3,3-dimethyl-2-oxo-1,4-dihydroquinolin-6-yl)-3-methoxy-pyridine-4-carboxamide] | > 5 | > 5
CCc1cc(C#N)ccc1C(=O)Nc1cc2c(cc1F)NC(=O)C(C)(C)C2 [Compound 42, 4-cyano-2-ethyl-N-(7-fluoro-3,3-dimethyl-2-oxo-1,4-dihydroquinolin-6-yl)benzamide] | 1 to 5 | 1 to 5
CCc1cnccc1/C=C/c1ccc2c(c1)CC(C)(C)C(=O)N2 [Compound 43, 6-[(E)-2-(3-ethyl-4-pyridyl)vinyl]-3,3-dimethyl-1,4-dihydroquinolin-2-one] | 0.25 to 1 | 1 to 5
CCc1cnccc1/C=C/c1cc2c(cc1F)NC(=O)CC2 [Compound 45, 6-[(E)-2-(3-ethyl-4-pyridyl)vinyl]-7-fluoro-3,4-dihydro-1H-quinolin-2-one] | 0.25 to 1 | 0.25 to 1
CC1(C)Cc2cc(Nc3ccc4ccccc4n3)ccc2NC1=O [Compound 46, 3,3-dimethyl-6-(2-quinolylamino)-1,4-dihydroquinolin-2-one] | 1 to 5 | 1 to 5
O=C1CCc2cc(Nc3ccc4ccccc4n3)c(F)cc2N1 [Compound 47, 7-fluoro-6-(2-quinolylamino)-3,4-dihydro-1H-quinolin-2-one] | 0.1 to 0.25 | < 0.1
CC1(C)Cc2cc(Nc3ccc4ccccc4n3)c(F)cc2NC1=O [Compound 48, 7-fluoro-3,3-dimethyl-6-(2-quinolylamino)-1,4-dihydroquinolin-2-one] | 0.25 to 1 | 0.25 to 1
CCc1c(C(=O)Nc2ccc3c(c2)CCC(=O)N3)cc[nH]c1=O [Compound 50, 3-ethyl-2-oxo-N-(2-oxo-3,4-dihydro-1H-quinolin-6-yl)-1H-pyridine-4-carboxamide] | 0.1 to 0.25 | 1 to 5
CCc1c[nH]c(=O)cc1C(=O)Nc1ccc2c(c1)CCC(=O)N2 [Compound 51, 5-ethyl-2-oxo-N-(2-oxo-3,4-dihydro-1H-quinolin-6-yl)-1H-pyridine-4-carboxamide] | > 5 | > 5
O=C1CCc2cc(NC(=O)c3ccnc4ccccc34)ccc2N1 [Compound 52, N-(2-oxo-3,4-dihydro-1H-quinolin-6-yl)quinoline-4-carboxamide] | 0.25 to 1 | 0.1 to 0.25
O=C1CCc2cc(NC(=O)c3ccncc3C(F)(F)F)ccc2N1 [Compound 54, N-(2-oxo-3,4-dihydro-1H-quinolin-6-yl)-3-(trifluoromethyl)pyridine-4-carboxamide] | 0.25 to 1 | > 5
CCc1c(C(=O)Nc2ccc3c(c2)CCC(=O)N3)ccnc1C [Compound 55, 3-ethyl-2-methyl-N-(2-oxo-3,4-dihydro-1H-quinolin-6-yl)pyridine-4-carboxamide] | 0.25 to 1 | 0.25 to 1
CCc1cnc(C)cc1C(=O)Nc1ccc2c(c1)CCC(=O)N2 [Compound 56, 5-ethyl-2-methyl-N-(2-oxo-3,4-dihydro-1H-quinolin-6-yl)pyridine-4-carboxamide] | 0.1 to 0.25 | 0.25 to 1
COCc1cnccc1C(=O)Nc1ccc2c(c1)CCC(=O)N2 [Compound 57, 3-(methoxymethyl)-N-(2-oxo-3,4-dihydro-1H-quinolin-6-yl)pyridine 4 carboxamide] | > 5 | > 5
CN(C)Cc1cnccc1C(=O)Nc1ccc2c(c1)CCC(=O)N2 [Compound 58, 3-[(dimethylamino)methyl]-N-(2-oxo-3,4-dihydro-1H-quinolin-6-yl)pyridine-4-carboxamide] | > 5 | > 5

— patent US20230128402A1 (The Trustees of Princeton University, priority 2020, published 2023)
